Measurements: publication PMC11746142, “Structural plasticity of bacterial ESCRT-III protein PspA in higher-order assemblies” (Nature Structural & Molecular Biology, 2024)
Values belong to the compound of their own block, whether it stands above or below them.

Legend:
[1] = biological target: T1, PspA (SynPspA, PspA wild type, slr1188) (Synechocystis sp. PCC 6803, UniProt P74717); assay: inhibition of ATPase activity; assay type: biochemical; conditions: high concentration needed; against ATP hydrolysis; non-hydrolysable analogue
T1 construct: gene im30; 28 kDa band

[2] = biological target: T1, PspA (SynPspA, PspA wild type, slr1188); assay: inhibition of ATPase activity; assay type: biochemical; conditions: high concentration needed; against ATP hydrolysis; non-hydrolysable analogue; remark: listed apart in the source
[3] = biological target: T2, PspA (SynPspA, PspA wild type, slr1188) (Synechocystis sp. PCC 6803, UniProt P74717, R44K/E126Q/E179Q); assay: bound nucleotide by HPLC-MS/MS after washing; malachite-green ATPase; assay type: biochemical; conditions: 2 mM ATP, 4 mM MgCl2, 10 mM Tris-HCl pH 8.0, 37 °C, 24 h
T2 construct: gene im30; 28 kDa band

PspA α1–α5 = biological target: T3, PspA α1–α5 (Synechocystis sp. PCC 6803, UniProt P74717); assay: malachite-green phosphate release; ADP-Glo; assay type: biochemical; conditions: 2 mM ATP, 4 mM MgCl2, 10 mM Tris-HCl pH 8.0, 37 °C
T3 construct: gene im30; helix α0 removed (amino acids 1-23 in Methods; 'first 22 amino acids' in Results); 25 kDa band

[4] = biological target: T1, PspA (SynPspA, PspA wild type, slr1188); assay: malachite-green phosphate release; ADP-Glo; bound nucleotide by HPLC-MS/MS; assay type: biochemical; conditions: 2 mM ATP, 4 mM MgCl2, 10 mM Tris-HCl pH 8.0, 37 °C
PspF(1–275) (EcoPspF) = biological target: T4, PspF(1–275) (EcoPspF) (Escherichia coli, UniProt P37344); assay: ATPase activity; assay type: biochemical; conditions: comparison ATPase
T4 construct: residues 1-275, E. coli BL21 (DE3), pET50(b)-derived plasmid, Ni-NTA purified

[5] = biological target: T1, PspA (SynPspA, PspA wild type, slr1188); assay: cryo-EM structure of helical rods; assay type: binding; conditions: rods refolded with 2 mM ATP, 4 mM MgCl2; ADP modelled in weak density, incomplete occupancy; site near α3/α4 loop between four chains; 180, 200, 215, 235 Å rods

T1 sequence (P74717 entry or part of it): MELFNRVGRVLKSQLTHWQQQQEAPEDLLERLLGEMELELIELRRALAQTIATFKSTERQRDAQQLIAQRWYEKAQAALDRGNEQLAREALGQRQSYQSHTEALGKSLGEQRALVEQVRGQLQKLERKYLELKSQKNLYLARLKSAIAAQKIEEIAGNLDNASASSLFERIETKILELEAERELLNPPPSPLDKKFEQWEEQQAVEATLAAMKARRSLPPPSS
T2 sequence (P74717 entry or part of it R44K/E126Q/E179Q): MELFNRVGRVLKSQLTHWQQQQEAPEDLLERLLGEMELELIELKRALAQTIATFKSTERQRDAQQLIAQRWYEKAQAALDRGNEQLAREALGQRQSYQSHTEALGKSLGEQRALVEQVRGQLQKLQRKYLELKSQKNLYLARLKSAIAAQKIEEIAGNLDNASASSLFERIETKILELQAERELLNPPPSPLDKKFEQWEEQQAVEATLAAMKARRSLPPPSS
T4 sequence (P37344 1-275): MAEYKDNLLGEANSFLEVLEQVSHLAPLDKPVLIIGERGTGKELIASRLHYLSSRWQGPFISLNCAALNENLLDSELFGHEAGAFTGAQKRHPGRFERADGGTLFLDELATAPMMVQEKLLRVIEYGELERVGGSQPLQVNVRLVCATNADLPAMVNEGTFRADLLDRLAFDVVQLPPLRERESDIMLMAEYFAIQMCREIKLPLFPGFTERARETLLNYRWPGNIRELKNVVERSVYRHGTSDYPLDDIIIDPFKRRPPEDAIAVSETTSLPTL
T3 sequence (P74717 entry or part of it): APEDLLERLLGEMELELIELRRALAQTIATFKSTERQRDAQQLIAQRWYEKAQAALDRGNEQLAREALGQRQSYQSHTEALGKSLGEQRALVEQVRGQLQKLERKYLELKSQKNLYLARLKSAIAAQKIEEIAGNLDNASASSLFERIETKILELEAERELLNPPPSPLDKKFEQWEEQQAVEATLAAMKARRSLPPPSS

Compound: Nc1ncnc2c1ncn2[C@@H]1O[C@H](COP(=O)(O)OP(=O)(O)CP(=O)(O)O)[C@@H](O)[C@H]1O [AMPPCP]
ATPase activity vs AMPPCP concentration [1]: could be decreased by high concentrations of ATPase inhibitors such as ATPγS or AMPPCP

Compound: Nc1ncnc2c1ncn2[C@@H]1O[C@H](COP(=O)(O)OP(=O)(O)OP(O)(O)=S)[C@@H](O)[C@H]1O [ATPγS]
ATPase activity vs ATPγS concentration [2]: could be decreased by high concentrations of ATPase inhibitors such as ATPγS or AMPPCP

malachite-green phosphate release; ADP-Glo; bound nucleotide by HPLC-MS/MS [4]: PspA can bind and hydrolyze ATP
Compound: Nc1ncnc2c1ncn2[C@@H]1O[C@H](COP(=O)(O)OP(=O)(O)OP(=O)(O)O)[C@@H](O)[C@H]1O [ATP]
bound nucleotide by HPLC-MS/MS after washing; malachite-green ATPase [3]: R44K/E126Q/E179Q mutant was still capable of ATP binding and hydrolysis | malachite-green phosphate release; ADP-Glo (PspA α1–α5): did not significantly reduce the ATPase activity | ATPase activity (PspF(1–275) (EcoPspF)): approximately ten times lower than bona fide AAA+ ATPases, such as E. coli PspF

Compound: Nc1ncnc2c1ncn2[C@@H]1O[C@H](COP(=O)(O)OP(=O)(O)O)[C@@H](O)[C@H]1O [ADP]
cryo-EM structure of helical rods [5]: Models of PspA apo (PDB:7ABK) and PspA+ATP with an ADP model fitted
